Patent publication US20020141966A1, “Compositions for treatment of malignant effusions, and methods of making and using the same” (priority 2000, published 2002)

Experiments:
[1] = test system: human colon carcinoma cell line HT29; test: Survival study in HT29 colon cancer xenograft mouse model; assay type: in vivo, SCID mice; settings: Paclitaxel 40 mg/kg, IP on day 4 post tumor cell implantation
Protocol: PACLIMER was provided as in powder and suspended in the vehicle (0.1% Tween80 in normal saline) just before administration. Paclitaxel was purchased from Bristol-Myers Squib Co., which was provided as a solution at a concentration of 6 mg/ml. The paclitaxel solution was diluted to 1 mg/ml with 0.9% sodium chloride just before use.
The human colon carcinoma cell line HT29 was used to set up the colon cancer xenograft mouse model. SCID mice were injected i.p. with 10 million cells. This generally results in death from the tumor metastasis and ascites around 30 days after tumor implantation. HT29 cells growing as a monolayer were harvested with trypsin and washed with PBS. The packed cells were resuspended in PBS (10 million cells per ml PBS). 48 SCID mice (C.B.17/Icr SCID, 8-10 weeks of age) were injected i.p. with 1 ml of the HT29 cell suspension (10 million cells for each mouse). 4 days after tumor implantation, the animals were grouped randomly. […]
For the ascites study, PACLIMER was to be given when obvious ascites was found in the mice. […] On 1, 5, and 10 days after treatment, 4 mice in each group was sacrificed at each time point and the ascites volumes were measured. […]

[2] = test system: malignant effusions associated with non-small cell lung cancer; settings: cited from earlier work
[3] = single 125 mg/m2 dose diluted in saline, intracavitary

In the case of `CC(=O)O[C@H]1C(=O)[C@@]2(C)[C@H]([C@H](OC(=O)c3ccccc3)[C@]3(O)C[C@H](OC(=O)[C@H](O)[C@@H](NC(=O)c4ccccc4)c4ccccc4)C(C)=C1C3(C)C)[C@]1(OC(C)=O)CO[C@@H]1C[C@@H]2O` [Paclitaxel, paclitaxel], the “Median Survival” value [1] is given as 44 days, the complete response rate [2, 3] is given as 28.6% and the total response rate [2, 3] is given as 92.9%. The “patients with total tumor mass reduced by more than 50%” value ([2]; single 125 mg/m2 dose, following the treatment) was “one patient out of fourteen”.
